Laboratory results: the supplement of paper PMC10657565
± gives the uncertainty stated by the source.

Key:
Experiment in all cases: relative cell viability vs DMSO control (% of DMSO control); higher = less growth inhibition (higher viability)
Details in all cases: treatment time: 72 h
[1] = system: BT-474
Method: (§1)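 Breast cancer cell lines (BT-474, HCC1806, SUM-159, SKBR-3) were seeded in triplicate in 96-well plates and treated 24 h after seeding with kinase inhibitors at 8 doses (3 nM to 30 uM). After 72 h, viability was read by CellTiter-Glo luminescence. Values were averaged over replicates and normalised to DMSO-only (0.1%) controls on each plate to give relative viability (% of DMSO).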

[2] = system: HCC1806
Method: as §1

[3] = system: SKBR3
Method: as §1

[4] = system: SUM159
Method: as §1

Compound	relative cell viability ([1]; 0.003 µM)	relative cell viability ([1]; 0.01 µM)	relative cell viability ([1]; 0.03 µM)	relative cell viability ([1]; 0.1 µM)	relative cell viability ([1]; 0.3 µM)	relative cell viability ([1]; 1 µM)	relative cell viability ([1]; 3 µM)	relative cell viability ([1]; 30 µM)	relative cell viability ([2]; 0.003 µM)	relative cell viability ([2]; 0.01 µM)	relative cell viability ([2]; 0.03 µM)	relative cell viability ([2]; 0.1 µM)	relative cell viability ([2]; 0.3 µM)	relative cell viability ([2]; 1 µM)	relative cell viability ([2]; 3 µM)	relative cell viability ([2]; 30 µM)	relative cell viability ([3]; 0.003 µM)	relative cell viability ([3]; 0.01 µM)	relative cell viability ([3]; 0.03 µM)	relative cell viability ([3]; 0.1 µM)	relative cell viability ([3]; 0.3 µM)	relative cell viability ([3]; 1 µM)	relative cell viability ([3]; 3 µM)	relative cell viability ([3]; 30 µM)	relative cell viability ([4]; 0.003 µM)	relative cell viability ([4]; 0.01 µM)	relative cell viability ([4]; 0.03 µM)	relative cell viability ([4]; 0.1 µM)	relative cell viability ([4]; 0.3 µM)	relative cell viability ([4]; 1 µM)	relative cell viability ([4]; 3 µM)	relative cell viability ([4]; 30 µM)
CNS(=O)(=O)Nc1nccc(Cc2c(C)c3ccc(Oc4ncccn4)cc3oc2=O)c1F	98.4 ± 1.4	94.3 ± 1.5	97.2 ± 2.2	94.9 ± 5.3	92.8 ± 2.1	87.6 ± 5.1	87.6 ± 1.8	41.6 ± 2.2	90 ± 7.3	86.2 ± 1.2	78.5 ± 0.86	77.8 ± 2.5	74.9 ± 3.6	75.1 ± 5.3	73.7 ± 3.6	72.8 ± 4.9																
Cc1nc(Nc2n[nH]c3c2CN(C(=O)N[C@H](CN(C)C)c2ccccc2)C3(C)C)c2sccc2n1	96.3 ± 2.5	92.7 ± 4.8	89.7 ± 3.5	86.5 ± 2.5	82.6 ± 5.6	70 ± 6.6	44 ± 2.3	21.3 ± 0.7	66.9 ± 11	46.3 ± 6	36.2 ± 1.9	32.5 ± 1.8	29.6 ± 1.5	19.4 ± 1.2	4.75 ± 0.17	2.8 ± 0.096																
COCc1c(-c2ccc(NC(=O)Nc3cc(C(F)(F)F)ccc3F)c(F)c2)c2c(N)ncnn2c1CN1CCOCC1 [ACTB-1003]																	105 ± 0.92	104 ± 2.9	107 ± 3.9	106 ± 2.7	107 ± 3.3	98.8 ± 2	78.2 ± 4	3.14 ± 0.2	101.4 ± 0.75	99.02 ± 0.34	96.9 ± 4.4	98.6 ± 1.8	91.7 ± 2.9	73.4 ± 5.4	39.5 ± 3.3	0.887 ± 0.066
c1cc(OCCN2CCCCC2)cc(-c2n[nH]c3ccc(-c4nnc[nH]4)cc23)c1 [CC-401]																	104 ± 2.5	104 ± 5.8	105 ± 2.5	100 ± 3.7	99.8 ± 2.2	94.5 ± 4.1	91 ± 2.1	68.2 ± 3.2	102 ± 3.9	102 ± 5	101 ± 2.8	99.9 ± 2.5	98.4 ± 4.2	103 ± 2.2	105 ± 3.4	52.5 ± 2.7
Cc1cc(Nc2ncc(Cl)c(Nc3ccccc3S(=O)(=O)C(C)C)n2)c(OC(C)C)cc1C1CCNCC1 [Ceritinib]																	104 ± 3	105 ± 2	102 ± 4.2	99.8 ± 3.8	96.4 ± 2.8	89.1 ± 5.3	10.7 ± 4.1	0.491 ± 0.1	103 ± 1.4	104 ± 2.6	103 ± 2.6	97.1 ± 3.6	90.8 ± 8.2	53.9 ± 11	1.44 ± 0.14	0.279 ± 0.078
Cn1nccc1Nc1nccc(-c2ccn([C@H](CO)c3ccc(Cl)c(F)c3)c(=O)c2)n1 [GDC-0994]	102 ± 6.2	101 ± 6.1	97.6 ± 7.6	94.3 ± 3.5	95.3 ± 5	97.8 ± 9.2	101 ± 11	88.4 ± 6.7	97.15 ± 0.91	94.8 ± 2.7	92 ± 4.1	88.3 ± 6.2	81.5 ± 3.2	81.6 ± 4	84.9 ± 3.7	73.5 ± 2.6																
COc1cc2ncnc(Nc3ccc(O)cc3)c2cc1OC [JANEX-1]																	106 ± 3.1	104.9 ± 0.48	107 ± 1.8	105 ± 3.3	104 ± 2.6	101 ± 5.9	100 ± 1.5	61.4 ± 2.9	101 ± 6.1	103 ± 1.8	104 ± 2.1	102 ± 3.1	97.9 ± 3.6	96.2 ± 4.1	92.5 ± 1.9	59.2 ± 2.8
C[C@]12O[C@H](C[C@]1(O)CO)n1c3ccccc3c3c4c(c5c6ccccc6n2c5c31)CNC4=O [Lestaurtinib]	87.8 ± 1.5	77.2 ± 3.4	73.6 ± 4.1	66.8 ± 7.2	59.5 ± 2.3	49.5 ± 2.6	37.9 ± 0.67	1.31 ± 0.099	83.42 ± 0.79	63.1 ± 3	43.6 ± 5.3	16 ± 0.76	7.81 ± 0.93	3.73 ± 0.28	2.9 ± 0.12	0.918 ± 0.075																
Cc1c(F)cc(C(=O)NC2CC2)cc1-c1ccc(C(=O)NCC(C)(C)C)cn1 [Losmapimod]																	105 ± 4.8	102 ± 7	101 ± 5.5	95.9 ± 5.4	95.9 ± 5.7	93 ± 4.7	93.4 ± 2.4	73.6 ± 2.7	98.8 ± 3	97.2 ± 1.3	98 ± 7	99 ± 5.2	92.7 ± 2.7	91.5 ± 5	87.5 ± 2.5	68.5 ± 3.9
C[C@@H](NC(=O)c1ncnc(N)c1Cl)c1ncc(C(=O)Nc2cc(C(F)(F)F)c(Cl)cn2)s1 [MLN-2480]	93.9 ± 2.1	98.5 ± 6	97.3 ± 2.4	95.8 ± 4.7	88.1 ± 6.3	77.5 ± 3.7	86.6 ± 9.7	69.5 ± 7	102 ± 1.9	102 ± 1.8	103 ± 1.8	102 ± 2.5	103 ± 2.3	100 ± 5	101.2 ± 0.76	68 ± 4.8																
Cc1ccc(-n2nc(C(C)(C)C)cc2NC(=O)NCc2cc(F)ccc2Oc2ccc3c(cnn3CCO)c2)cc1 [Pexmetinib]	116 ± 3.7	118 ± 3	119 ± 1.9	118 ± 4.1	116 ± 6.1	110 ± 5	105 ± 3.3	28 ± 0.44	98.7 ± 2.1	100 ± 3.3	102 ± 4.9	105 ± 5.4	106 ± 4.4	102 ± 3.3	88.3 ± 4.1	12.7 ± 1.3																
CN1CCN(c2nc(C3=C(c4c[nH]c5ccccc45)C(=O)NC3=O)c3ccccc3n2)CC1 [Sotrastaurin]	111 ± 4.3	108 ± 9.6	104 ± 15	99.8 ± 21	91 ± 26	84.5 ± 32	76.8 ± 29	42.4 ± 18	101 ± 2.4	98.3 ± 3.2	100 ± 1.9	103 ± 2.2	103 ± 3.5	104 ± 3.6	103 ± 1.9	43.3 ± 5.5																
Cn1c(=O)c(F)c(Nc2ccc(I)cc2F)c2c(=O)n(C[C@@H](O)CO)cnc21 [TAK-733]	104 ± 16	103 ± 7.3	104 ± 11	94.8 ± 12	99.5 ± 11	93 ± 14	92 ± 9.1	36.3 ± 9.5	77.8 ± 5.2	75.1 ± 5.4	73.8 ± 3.5	72.7 ± 4.1	71.6 ± 2.5	71.6 ± 3.9	70.3 ± 3.3	39.2 ± 3.9																
CN[C@@H]1C[C@H]2O[C@@](C)([C@@H]1OC)n1c3ccccc3c3c4c(c5c6ccccc6n2c5c31)C(=O)N[C@H]4O [UCN-01]	97.4 ± 3.3	89.9 ± 2	85.5 ± 2.9	85.9 ± 11	56.9 ± 3.2	34.5 ± 3.3	15.9 ± 0.39	6.69 ± 0.4	97.8 ± 4.1	76.3 ± 6.7	36.7 ± 12	9.05 ± 0.96	8.6 ± 0.48	7.53 ± 0.63	2.19 ± 0.3	0.853 ± 0.066																
